Test results published in BindingDB's records for patent US10538528 (Taiho Pahrmaceutical Co., Ltd., 2020).

Biological target: RAC-alpha serine/threonine-protein kinase (Homo sapiens, UniProt P31749)
Experiment: Kinase Activity Assay
Procedure: Akt1 was prepared and assays of inhibitory activity of the compound according to the present invention against Akt1 kinase activity in vitro were conducted according to the method described in Biochem. J., vol. 385, pp. 399-408, 2005 and Cancer Res., vol. 68, pp. 2366-2374, 2008. In the preparation of Akt1 protein, human Akt1 tagged with the middle T antigen was expressed in an insect cell Sf9, Akt1 was prepared through affinity purification and activation by PDK1, and the resultant was stored at −80° C. until the inhibition assays of the compounds. In the inhibition assay of the compounds, Akt1 and the compound according to the present invention were subjected to pre-incubation at 25° C. for 120 minutes in a reaction buffer (15 mM Tris-HCl, pH 7.5, 0.01% Tween-20, 2 mM DTT). Subsequently, biotinylated Crosstide (biotin-[…], Millipore), MgCl2, and ATP were added as substrates at the final concentration of 500 nM, 10 mM, and 150 μM, respectively, and the reaction was allowed to proceed at 25° C. for 60 minutes. […] In the end, the fluorescence levels irradiated with an excitation light of 337 nm were assayed at two different wavelength levels (i.e., 620 nm and 665 nm) using PI-HERAstar FS (BMG LABTECH) or PHERAstar (BMG LABTECH).

RAC-alpha serine/threonine-protein kinase, sequence (P31749 whole entry): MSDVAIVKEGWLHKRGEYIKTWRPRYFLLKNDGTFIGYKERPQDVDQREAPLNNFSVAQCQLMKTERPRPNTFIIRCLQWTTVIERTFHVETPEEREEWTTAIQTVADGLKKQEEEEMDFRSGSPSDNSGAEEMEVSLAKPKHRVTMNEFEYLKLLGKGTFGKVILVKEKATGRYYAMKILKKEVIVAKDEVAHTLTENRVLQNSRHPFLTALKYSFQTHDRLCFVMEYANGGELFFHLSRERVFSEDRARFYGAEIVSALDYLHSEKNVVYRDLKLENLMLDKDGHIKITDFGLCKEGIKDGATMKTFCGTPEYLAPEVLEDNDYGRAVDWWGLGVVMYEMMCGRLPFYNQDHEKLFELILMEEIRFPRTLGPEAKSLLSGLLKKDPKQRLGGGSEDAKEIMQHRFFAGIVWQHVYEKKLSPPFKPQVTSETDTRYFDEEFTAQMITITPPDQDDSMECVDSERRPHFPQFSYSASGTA

Compound: CN(C)CCn1cc(-c2ccc(F)c(C(F)(F)F)c2)nc1C1CCN(c2ncnc3c2C(C)(C)C(=O)N3)CC1 [US10538528, Compound A]
- IC50: 52.2 nM
